For series [1], the system named is Mus musculus. As to the kind of experiment: Assayed for antitumor activity against P388 leukemia in mice at a dose of 100 mg/kg/injection; Toxic, T/C<85%. The conditions noted are these: in vivo. In kind it is toxicity, organism-based.
Series [2] relates to Mus musculus. As to the kind of experiment: Assayed for antitumor activity against P388 leukemia in mice at a dose of 5 mg/kg/injection. In kind it is functional.
The subject of series [3] is Mus musculus. As to the kind of experiment: Assayed for antitumor activity against P388 leukemia in mice at a dose of 10 mg/kg/injection. The series is classed as functional.
The subject of series [4] is Mus musculus. As to the kind of experiment: Assayed for antitumor activity against P388 leukemia in mice at a dose of 25 mg/kg/injection. The series is classed as functional.
In series [5] the test system is Mus musculus. As to the kind of experiment: Assayed for antitumor activity against P388 leukemia in mice at a dose of 50 mg/kg/injection. The series is classed as functional.
The test system of the next series is L1210. As to the kind of experiment: Tested for in vitro cytotoxicity against L1210 murine leukemia cells in mice. The series is classed as functional, cell-based. The conditions noted are these: Mus musculus.
Series [6] concerns Mus musculus. Description: Assayed for antitumor activity against P388 leukemia in mice at a dose of 100 mg/kg/injection. The series is classed as functional.
Series [7] concerns Mus musculus. Description: Assayed for antitumor activity against P388 leukemia in mice at a dose of 250 mg/kg/injection; Toxic, T/C<85%. In kind it is toxicity, organism-based. The conditions noted are these: in vivo.
Series [8] deals with Mus musculus. Description: Assayed for antitumor activity against P388 leukemia in mice at a dose of 250 mg/kg/injection. In kind it is functional.
The test system of series [9] is Mus musculus. As to the kind of experiment: Tested for antitumor activity against B16 melanoma in mice, at a dose of 50 mg/kg given intraperitoneally. The series is classed as functional. As to conditions: route intraperitoneal.
The test system of series [10] is Mus musculus. Description: Tested for antitumor activity against vincristine-resistant P388 leukemia (P388/VCR) in mice, at a dose of 25 mg/kg given intraperitoneally. In kind it is functional. The conditions noted are these: route intraperitoneal.
The subject of series [11] is Mus musculus. Description: Assayed for antitumor activity against P388 leukemia in mice at a dose of 2.5 mg/kg/injection. The series is classed as functional.
The test system of series [12] is Mus musculus. As to the kind of experiment: Tested for antitumor activity against vincristine-resistant P388 leukemia (P388/VCR) in mice, at a dose of 10 mg/kg given intraperitoneally. In kind it is functional. As to conditions: route intraperitoneal.
The nature of series [13]: Evaluated for the inhibition of microtubule assembly prepared from bovine brain. In kind it is functional, Bos taurus.
Series [14] concerns Mus musculus. As to the kind of experiment: Tested for antitumor activity against vincristine-resistant P388 leukemia (P388/VCR) in mice, at a dose of 5 mg/kg given intraperitoneally. The series is classed as functional. As to conditions: route intraperitoneal.
Series [15] concerns Mus musculus. Description: Tested for antitumor activity against B16 melanoma in mice, at a dose of 100 mg/kg given intraperitoneally. In kind it is functional. The conditions noted are these: route intraperitoneal.
The test system of series [16] is Mus musculus. As to the kind of experiment: Tested for antitumor activity against vincristine-resistant P388 leukemia (P388/VCR) in mice, at a dose of 2.5 mg/kg given intraperitoneally. The series is classed as functional. The conditions noted are these: route intraperitoneal.
Series [17] concerns Mus musculus. Description: Tested for antitumor activity against B16 melanoma in mice, at a dose of 25 mg/kg given intraperitoneally. In kind it is functional. The conditions noted are these: route intraperitoneal.
In series [18] the test system is Mus musculus. As to the kind of experiment: Tested for antitumor activity against vincristine-resistant P388 leukemia (P388/VCR) in mice, at a dose of 10 mg/kg given intraperitoneally; Toxic, T/C<85%. The series is classed as toxicity, organism-based. The arrangement: dose 10 mg/kg, route intraperitoneal. The conditions noted are these: in vivo, ip.
Series [19] deals with Mus musculus. Description: Tested for antitumor activity against B16 melanoma in mice at a dose of 25 mg/kg given intraperitoneally. The series is classed as functional. The conditions noted are these: route intraperitoneal.
In series [20] the test system is Mus musculus. As to the kind of experiment: Tested for antitumor activity against vincristine-resistant P388 leukemia (P388/VCR) in mice at a dose 5 mg/kg, given intraperitoneally; Toxic, T/C<85%. The series is classed as toxicity, organism-based. As to conditions: in vivo, ip. The arrangement: dose 5 mg/kg, route intraperitoneal.
The subject of series [21] is Mus musculus. Description: Tested for antitumor activity against vincristine-resistant P388 leukemia (P388/VCR) in mice at a dose 2.5 mg/kg, given intraperitoneally. As to conditions: route intraperitoneal. The series is classed as functional.
Series [22] relates to Mus musculus. Description: Tested for antitumor activity against vincristine-resistant P388 leukemia (P388/VCR) in mice at a dose 1 mg/kg, given intraperitoneally. In kind it is functional. As to conditions: route intraperitoneal.
The test system of series [23] is Mus musculus. Description: Assayed for antitumor activity against P388 leukemia in mice at a dose of 50 mg/kg/injection; Toxic, T/C<85%. In kind it is toxicity, organism-based. As to conditions: in vivo.

≈ marks a conversion by molar mass, not a printed value.

Consider `COc1cc(OC)cc([C@@H]2c3cc4c(cc3N[C@H]3COC(=O)N23)OCCO4)c1`, for which the T/C (usually the result in the treated group divided by that in the control group, in per cent) with Mus musculus [1] is given as below 85%; in the series with Mus musculus [2], 114%; in the series with Mus musculus [3], 131%; in the series with Mus musculus [4] it was 147%; with Mus musculus [5], 199%. Moreover, the IC50 (in general, the concentration that gives 50% inhibition) in the series on L1210 was 0.028 µg/mL (≈ 0.0728 µM).
For `COc1cc(OC)cc([C@@H]2c3cc4c(cc3N[C@@H]3COC(=O)N23)OCO4)c1`, the T/C was 214% in the series with Mus musculus [6], 123% in the series on Mus musculus [3], 137% in the series on Mus musculus [4] and 159% in the series on Mus musculus [5]. Also, the IC50 in the series with L1210 worked out at 0.22 µg/mL (≈ 0.594 µM).
On to `COc1cc([C@@H]2c3cc4c(cc3N[C@@H]3COC(=O)N23)OCCO4)cc(OC)c1OC`, for which the T/C in the series with Mus musculus [7] is below 85%; with Mus musculus [6] it was 233%; in the series on Mus musculus [2] it was 119%; in the series on Mus musculus [3], 131%; with Mus musculus [4], 153%; with Mus musculus [5] it was 165%. The molecule further gave an IC50 with L1210 of 0.052 µg/mL (≈ 0.125 µM).
Take `COc1cc([C@@H]2c3cc4c(cc3N(N)[C@@H]3COC(=O)N23)OCO4)cc(OC)c1OC`: the T/C is given as 147% in the series with Mus musculus [6]; 111% with Mus musculus [3]; 122% in the series on Mus musculus [4]; 147% with Mus musculus [5]; 161% with Mus musculus [8]. In the series with L1210, this molecule had an IC50 of 0.75 µg/mL (≈ 1.81 µM).
Turning to `COc1cc([C@@H]2c3cc4c(cc3N[C@H]3COC(=O)N23)OCO4)cc(OC)c1OC`, the T/C with Mus musculus [6] is 172%; with Mus musculus [9], 153%; in the series with Mus musculus [2] it was 124%; with Mus musculus [10], 152%; in the series with Mus musculus [11] it was 111%; with Mus musculus [12] it was 152%. The T/C was 128% with Mus musculus [3]; 150% in the series on Mus musculus [4]; 129% in the series on Mus musculus [14]; 197% with Mus musculus [15]; 161% in the series on Mus musculus [5]; above 326% with Mus musculus [8]. In the series on Mus musculus [16], this molecule came in with a T/C of 113%. Also, the IC50 in series [13] came out at 0.42 µg/mL (≈ 1.05 µM); with L1210 it was 0.05 µg/mL (≈ 0.125 µM).
On to `COc1cc([C@@H]2c3cc4c(cc3N[C@H]3COC(=O)N23)OCCO4)cc(OC)c1OC`, for which the T/C in the series with Mus musculus [1] was below 85%; with Mus musculus [2], 139%; in the series on Mus musculus [3], 144%; in the series with Mus musculus [4] it was 156%; with Mus musculus [5], 177%. The molecule further displayed an IC50 in the series on L1210 of 0.055 µg/mL (≈ 0.133 µM).
As to `COc1cc([C@@H]2c3cc4c(cc3N[C@@H]3COC(=O)N23)OCO4)cc(OC)c1OC`, the T/C is given as 190% in the series with Mus musculus [9]; 117% with Mus musculus [2]; 144% with Mus musculus [3]; 161% in the series on Mus musculus [4]; 163% with Mus musculus [17]; below 85% in the series with Mus musculus [18]. Also, the T/C in the series with Mus musculus [14] is recorded as 137%; in the series with Mus musculus [5], 239%. In addition, the IC50 in series [13] turned out to be 1.7 µg/mL (≈ 4.25 µM); with L1210, 0.42 µg/mL (≈ 1.05 µM).
On to `COc1cc(OC)cc([C@@H]2c3cc4c(cc3N[C@@H]3COC(=O)N23)OCCO4)c1`, for which the T/C is reported as below 85% in the series on Mus musculus [7]; 94% in the series with Mus musculus [6]; 117% with Mus musculus [2]; 133% in the series on Mus musculus [3]; 150% with Mus musculus [4]; 172% with Mus musculus [5]. In addition, it took 0.08 µg/mL (≈ 0.208 µM) to reach half-maximal inhibition in the series on L1210 (IC50).
With `COc1cc([C@@H]2c3cc4c(cc3N(N)[C@H]3COC(=O)N23)OCO4)cc(OC)c1OC`, the T/C in the series on Mus musculus [7] is reported as below 85%; in the series with Mus musculus [6], 153%; with Mus musculus [2], 104%; with Mus musculus [3], 109%; in the series with Mus musculus [4], 114%; with Mus musculus [5], 134%. The midpoint of inhibition in the series with L1210, the IC50, lay at 0.09 µg/mL (≈ 0.217 µM).
Consider `COc1cc(OC)cc([C@@H]2c3cc4c(cc3N[C@H]3COC(=O)N23)OCO4)c1`, for which the T/C amounted to 206% in the series on Mus musculus [6]; 110% in the series on Mus musculus [3]; 139% in the series with Mus musculus [4]; 156% with Mus musculus [5]; 206% with Mus musculus [8]. This molecule also gave an IC50 in the series on L1210 of 0.16 µg/mL (≈ 0.432 µM).
Regarding `COc1cc(C2c3cc4c(cc3N=C3COC(=O)N32)OCO4)cc(OC)c1OC` (configuration not stated), the T/C in the series with Mus musculus [6] is 109%; in the series with Mus musculus [2], 104%; in the series on Mus musculus [3], 109%; in the series on Mus musculus [4], 109%; with Mus musculus [5] it was 111%; in the series on Mus musculus [8], 144%. In the series on L1210, this molecule showed an IC50 of 0.54 µg/mL (≈ 1.36 µM).
For `COc1cc([C@@H]2c3cc4c(cc3[C@H](O)[C@H]3COC(=O)[C@H]23)OCO4)cc(OC)c1OC` [PODOFILOX], the T/C with Mus musculus [19] is recorded as 110%; with Mus musculus [11] it was 111%; in the series on Mus musculus [20] it was below 85%; in the series on Mus musculus [3] it was 109%; with Mus musculus [4], 111%; in the series with Mus musculus [21] it was 125%. Moreover, the results for the T/C in the series on Mus musculus [22] and in the series on Mus musculus [23] were 122% and below 85%, respectively. The IC50 in series [13] came out at 0.13 µg/mL (≈ 0.314 µM); with L1210, 0.0036 µg/mL (≈ 0.00869 µM).
